Experimental findings from US20230391752A1, “PYRROLIDINE-3-CARBOXAMIDE DERIVATIVES AND RELATED USES” (Chulalongkorn University, priority 2020, published 2023) are described below.

The structures appear in SMILES notation.

The assay concerns HBV. In words: In vitro anti-HBV activity in HepG2.2.15 cell line (intracellular HBV DNA by qPCR at 1 μM). As to conditions: Hepatitis B virus, 144 h; HepG2.2.15 cells, 1 μM compound, 6 days, intracellular HBV DNA as percentage compared to vehicle control (0.5% DMSO). Type of assay: cell-based. The method, boiled down:
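Intracellular HBV DNA was quantified by qPCR and given as percent of vehicle (0.5% DMSO), grouped into letter ranges. Stably transfected HepG2.2.15 cells had 6 days of exposure to 1 μM compound, with medium and compound renewed after day 3.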
A general note: Real-time PCR tracks product formation cycle by cycle.

Molecule `Cc1nccnc1-c1ccc(C(=O)N2CC[C@H](C(=O)Nc3cc(F)c(F)c(F)c3)C2)[nH]1` [Example 92, (S)-1-(5-(3-methylpyrazin-2-yl)-1H-pyrrole-2-carbonyl)-N-(3,4,5-trifluorophenyl)pyrrolidine-3-carboxamide] registered an activity at 1 µM of 45 to 60%.

In turn, `Cc1cn[nH]c(=O)c1-c1ccc(C(=O)N2CC[C@H](C(=O)Nc3cc(F)c(F)c(F)c3)C2)[nH]1` [Example 124, (S)-1-(5-(5-methyl-3-oxo-2,3-dihydropyridazin-4-yl)-1H-pyrrole-2-carbonyl)-N-(3,4,5-trifluorophenyl)pyrrolidine-3-carboxamide] yielded an activity at 1 µM of 45 to 60%.

As to `Cc1cc(C)c(C(=O)N2CC[C@H](C(=O)Nc3cc(F)c(F)c(F)c3)C2)[nH]1` [Example 34, (S)-1-(3,5-dimethyl-1H-pyrrole-2-carbonyl)-N-(3,4,5-trifluorophenyl)pyrrolidine-3-carboxamide], the activity at 1 µM is more than 90%.

The molecule `O=C(Nc1cc(F)c(F)c(F)c1)[C@H]1CCN(C(=O)c2[nH]c3ccccc3c2-c2cn[nH]c2)C1` [Example 140, (S)-1-(3-(1H-pyrazol-4-yl)-1H-indole-2-carbonyl)-N-(3,4,5-trifluorophenyl)pyrrolidine-3-carboxamide] registered an activity at 1 µM of more than 90%.

Consider `Cc1noc(C)c1-c1ccc(C(=O)N2CC[C@H](C(=O)Nc3cc(F)c(F)c(F)c3)C2)[nH]1` [Example 109, (S)-1-(5-(3,5-dimethylisoxazol-4-yl)-1H-pyrrole-2-carbonyl)-N-(3,4,5-trifluorophenyl) pyrrolidine-3-carboxamide], for which the activity at 1 µM fell in the range of 60 to 70%.

Take `O=Cc1c[nH]c2cc(C(=O)N3CC[C@H](C(=O)Nc4cc(F)c(F)c(F)c4)C3)ccc12` [Example 36, (S)-1-(3-formyl-1H-indole-6-carbonyl)-N-(3,4,5-trifluorophenyl)pyrrolidine-3-carboxamide]: the activity at 1 µM was in the range of 70 to 80%.

As for `O=C(Nc1cc(F)c(F)c(F)c1)[C@H]1CCN(C(=O)c2ccc3cc[nH]c3c2)C1` [Example 35, (S)-1-(1H-indole-6-carbonyl)-N-(3,4,5-trifluorophenyl)pyrrolidine-3-carboxamide], the activity at 1 µM was in the range of 70 to 80%.

As for `O=C(Nc1cc(F)c(F)c(F)c1)[C@H]1CCN(C(=O)c2sccc2Cl)C1` [Example 3, (S)-1-(3-chlorothiophene-2-carbonyl)-N-(3,4,5-trifluorophenyl)pyrrolidine-3-carboxamide], the activity at 1 µM fell in the range of 70 to 80%.

For the molecule `O=C(Nc1cc(F)c(F)c(F)c1)[C@H]1CCN(C(=O)c2nc3cccnc3[nH]2)C1` [Example 67, (S)-1-(3H-imidazo[4,5-b]pyridine-2-carbonyl)-N-(3,4,5-trifluorophenyl)pyrrolidine-3-carboxamide], the activity at 1 µM is 45 to 60%.

Consider `N#Cc1cc(NC(=O)[C@H]2CCN(C(=O)c3ccc(-c4cccnc4)[nH]3)C2)ccc1F` [Example 75, (S)—N-(3-cyano-4-fluorophenyl)-1-(5-(pyridin-3-yl)-1H-pyrrole-2-carbonyl)pyrrolidine-3-carboxamide], for which the activity at 1 µM lay in the range of 60 to 70%.

Consider `O=C(Nc1cc(F)c(F)c(F)c1)[C@H]1CCN(C(=O)c2cc3cc(F)ccc3[nH]2)C1` [Example 57, (S)-1-(5-fluoro-1H-indole-2-carbonyl)-N-(3,4,5-trifluorophenyl)pyrrolidine-3-carboxamide], for which the activity at 1 µM is more than 90%.

Consider `Cc1cc(Cl)c(C(=O)N2CC[C@H](C(=O)Nc3cc(F)c(F)c(F)c3)C2)s1` [Example 5, (S)-1-(3-chloro-5-methylthiophene-2-carbonyl)-N-(3,4,5-trifluorophenyl)pyrolidine-3-carboxamide], for which the activity at 1 µM was 80 to 90%.

`CC(O)c1c[nH]c(C(=O)N2CC[C@H](C(=O)Nc3cc(F)c(F)c(F)c3)C2)c1` (stereo partly drawn) [Example 39, (3S)-1-(4-(1-hydroxyethyl)-1H-pyrrole-2-carbonyl)-N-(3,4,5-trifluorophenyl)pyrrolidine-3-carboxamide] displayed an activity at 1 µM of 70 to 80%.

As for `Cc1cc(NC(=O)[C@@H]2CN(C(=O)c3[nH]c4ccccc4c3Cl)C[C@H]2C)ccc1F` [Example 167, (3S,4S)-1-(3-chloro-1H-indole-2-carbonyl)-N-(4-fluoro-3-methylphenyl)-4-methylpyrrolidine-3-carboxamide], the activity at 1 µM was 45 to 60%.

`Cc1nn(C)c(C)c1-c1ccc(C(=O)N2CC[C@H](C(=O)Nc3cc(F)c(F)c(F)c3)C2)[nH]1` [Example 88, (S)—N-(3,4,5-trifluorophenyl)-1-(5-(1,3,5-trimethyl-1H-pyrazol-4-yl)-1H-pyrrole-2-carbonyl) pyrrolidine-3-carboxamide] showed an activity at 1 µM of less than 45%.

`N#Cc1ncccc1-c1ccc(C(=O)N2CC[C@H](C(=O)Nc3cc(F)c(F)c(F)c3)C2)[nH]1` [Example 97, (S)-1-(5-(2-cyanopyridin-3-yl)-1H-pyrrole-2-carbonyl)-N-(3,4,5-trifluorophenyl) pyrrolidine-3-carboxamide] came in with an activity at 1 µM of less than 45%.

Consider `O=C(Nc1cc(F)c(F)c(F)c1)[C@H]1CCN(C(=O)c2cnc[nH]2)C1` [Example 30, (S)-1-(1H-imidazole-5-carbonyl)-N-(3,4,5-trifluorophenyl)pyrrolidine-3-carboxamide], for which the activity at 1 µM was more than 90%.

`Cc1ncccc1Cc1ccc(C(=O)N2CC[C@H](C(=O)Nc3cc(F)c(F)c(F)c3)C2)[nH]1` [Example 145, (S)-1-(5-((2-methylpyridin-3-yl)methyl)-1H-pyrrole-2-carbonyl)-N-(3,4,5-trifluorophenyl)pyrrolidine-3-carboxamide] returned an activity at 1 µM of 70 to 80%.

On to `O=C(Nc1cc(F)c(F)c(F)c1)[C@H]1CCN(C(=O)c2ccc(C(F)F)[nH]2)C1` [Example 11, (S)-1-(5-(difluoromethyl)-1H-pyrrole-2-carbonyl)-N-(3,4,5-trifluorophenyl)pyrrolidine-3-carboxamide], for which the activity at 1 µM is 70 to 80%.

In turn, `Cc1ccc(C(=O)N2CC[C@H](C(=O)Nc3ccc(F)c(C#N)c3)[C@@H]2C)[nH]1` [Example 66, (2S,3S)—N-(3-cyano-4-fluorophenyl)-2-methyl-1-(5-methyl-1H-pyrrole-2-carbonyl)pyrrolidine-3-carboxamide] had an activity at 1 µM of 45 to 60%.

For the molecule `O=C(Nc1cc(F)c(F)c(F)c1)[C@H]1CCN(C(=O)c2ccc(C3CC3)[nH]2)C1` [Example 73, (S)-1-(5-cyclopropyl-1H-pyrrole-2-carbonyl)-N-(3,4,5-trifluorophenyl)pyrrolidine-3-carboxamide], the activity at 1 µM fell in the range of 45 to 60%.

Consider `Cc1ccc2[nH]c(C(=O)N3CC[C@H](C(=O)Nc4cc(F)c(F)c(F)c4)C3)cc2c1` [Example 55, (S)-1-(5-methyl-1H-indole-2-carbonyl)-N-(3,4,5-trifluorphenyl)pyrrolidine-3-carboxamide], for which the activity at 1 µM is more than 90%.

In turn, `Cc1cc(NC(=O)[C@H]2CCN(C(=O)c3ccc(-c4ccnnc4)[nH]3)C2)ccc1F` [Example 130, (S)—N-(4-fluoro-3-methylphenyl)-1-(5-(pyridazin-4-yl)-1H-pyrrole-2-carbonyl)pyrrolidine-3-carboxamide] gave an activity at 1 µM of less than 45%.

Regarding `Cc1n[nH]c(C)c1-c1ccc2cc(C(=O)N3CC[C@H](C(=O)Nc4cc(F)c(F)c(F)c4)C3)[nH]c2c1` [Example 134, (S)-1-(6-(3,5-dimethyl-1H-pyrazol-4-yl)-1H-indole-2-carbonyl)-N-(3,4,5-trifluorophenyl)pyrrolidine-3-carboxamide], the activity at 1 µM is less than 45%.
